Test results: US7396837B2, “Antitumoral analogs of lamellarins” (Pharma Mar, S.A.U., priority 2002, dated 2008)
Read-outs that look alike come from different tables or passages of the source.

Assays:
Format in all cases: cell-based
[1] = test system: IGROV-ET; assay: SRB colorimetric cell growth inhibition assay, IGROV-ET (ET-743 resistant); conditions: Homo sapiens, IGROV-ET; for GI50: GI=growth inhibition, read-out: GI50 IGROV-ET; for CC50: read-out: LC50 IGROV-ET; for IC (TGI): read-out: TGI IGROV-ET
Summary of the method: (§1)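 In this cytotoxicity screen, compound stays in contact with the cultured human cancer cells without washout; sulforhodamine B binding gives the measure of cell number, and endpoints separate growth inhibition from cytostasis (TGI) and killing (LC).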

[2] = test system: HeLa-APL; assay: SRB colorimetric cell growth inhibition assay, HeLa-APL (aplidine resistant); conditions: Homo sapiens, HELA-APL; for GI50: GI=growth inhibition, read-out: GI50 HELA-APL; for CC50: read-out: LC50 HELA-APL; for IC (TGI): read-out: TGI HELA-APL
Summary of the method: as §1

[3] = test system: A-549; assay: SRB colorimetric cell growth inhibition assay, A-549; conditions: Homo sapiens, A549, A-549; for GI50: GI=growth inhibition, read-out: GI50 A-549; for CC50: read-out: LC50 A-549; for IC (TGI): read-out: TGI A-549
Summary of the method: as §1

[4] = test system: DU-145; assay: SRB colorimetric cell growth inhibition assay, DU-145; conditions: Homo sapiens, DU-145, DU-145; for GI50: GI=growth inhibition, read-out: GI50 DU-145; for CC50: read-out: LC50 DU-145; for IC (TGI): read-out: TGI DU-145
Summary of the method: as §1

[5] = test system: SK-BR-3; assay: SRB colorimetric cell growth inhibition assay, SK-BR-3; conditions: Homo sapiens, SK-BR-3, SK-BR-3; for GI50: GI=growth inhibition, read-out: GI50 SK-BR-3; for CC50: read-out: LC50 SK-BR-3; for IC (TGI): read-out: TGI SK-BR-3
Summary of the method: as §1

[6] = test system: SK-MEL-28; assay: SRB colorimetric cell growth inhibition assay, SK-MEL-28; conditions: Homo sapiens, SK-MEL-28, MEL-28; for GI50: GI=growth inhibition, read-out: GI50 MEL-28; for CC50: read-out: LC50 MEL-28; for IC (TGI): read-out: TGI MEL-28
Summary of the method: as §1

[7] = test system: K-562; assay: SRB colorimetric cell growth inhibition assay, K-562; conditions: Homo sapiens, K562, K-562; for GI50: GI=growth inhibition, read-out: GI50 K-562; for CC50: read-out: LC50 K-562; for IC (TGI): read-out: TGI K-562
Summary of the method: as §1

[8] = test system: HeLa; assay: SRB colorimetric cell growth inhibition assay, HeLa; conditions: Homo sapiens, HeLa; for GI50: GI=growth inhibition, read-out: GI50 HELA; for CC50: read-out: LC50 HELA; for IC (TGI): read-out: TGI HELA
Summary of the method: as §1

[9] = test system: LNCaP; assay: SRB colorimetric cell growth inhibition assay, LNCaP; conditions: Homo sapiens, LNCaP, LN-caP; for GI50: GI=growth inhibition, read-out: GI50 LN-caP; for CC50: read-out: LC50 LN-caP; for IC (TGI): read-out: TGI LN-caP
Summary of the method: as §1

[10] = test system: LoVo; assay: SRB colorimetric cell growth inhibition assay, LoVo; conditions: Homo sapiens, LoVo; for GI50: GI=growth inhibition, read-out: GI50 LOVO; for CC50: read-out: LC50 LOVO; for IC (TGI): read-out: TGI LOVO
Summary of the method: as §1

[11] = test system: IGROV; assay: SRB colorimetric cell growth inhibition assay, IGROV; conditions: Homo sapiens, IGROV; for GI50: GI=growth inhibition, read-out: GI50 IGROV; for CC50: read-out: LC50 IGROV; for IC (TGI): read-out: TGI IGROV
Summary of the method: as §1

[12] = test system: HT-29; assay: SRB colorimetric cell growth inhibition assay, HT-29; conditions: Homo sapiens, HT-29, HT-29; for GI50: GI=growth inhibition, read-out: GI50 HT-29; for CC50: read-out: LC50 HT-29; for IC (TGI): read-out: TGI HT-29
Summary of the method: as §1

[13] = test system: PANC-1; assay: SRB colorimetric cell growth inhibition assay, PANC-1; conditions: Homo sapiens, PANC-1, PANC-1; for GI50: GI=growth inhibition, read-out: GI50 PANC-1; for CC50: read-out: LC50 PANC-1; for IC (TGI): read-out: TGI PANC-1
Summary of the method: as §1

[14] = test system: LoVo-Dox; assay: SRB colorimetric cell growth inhibition assay, LoVo-Dox (MDR); conditions: Homo sapiens, LOVO-DOX; for GI50: GI=growth inhibition, read-out: GI50 LOVO-DOX; for CC50: read-out: LC50 LOVO-DOX; for IC (TGI): read-out: TGI LOVO-DOX
Summary of the method: as §1

[15] = LC=cell killing (cytotoxic effect)
[16] = TGI=total growth inhibition (cytostatic effect)
[17] = cell killing (cytotoxic effect)
[18] = total growth inhibition (cytostatic effect)

Q: With `COc1cc(-c2c3c4cc(OC)c(OC(C)C)cc4oc(=O)c3n3ccc4c([N+](=O)[O-])cccc4c23)ccc1OC(C)C` [Compound 54] as the compound, how does the GI50 [1] read?
A: 6.64 µM

Q: And the CC50 [1, 15]?
A: 17.2 µM

Q: What about the IC (TGI) [1, 16] of the same compound?
A: 17.2 µM

Q: What about the GI50 [2] of the same compound?
A: 3.83 µM

Q: What about the CC50 [2, 15] of the same compound?
A: 17.2 µM

Q: And the IC (TGI) [2, 16]?
A: 17.2 µM

Q: What about the GI50 [3] of the same compound?
A: 2.85 µM

Q: And the CC50 [3, 15]?
A: 17.2 µM

Q: What about the IC (TGI) [3, 16] of the same compound?
A: 15.1 µM

Q: And the GI50 [4]?
A: 2.88 µM

Q: And the CC50 [4, 15]?
A: 17.2 µM

Q: And the IC (TGI) [4, 16]?
A: 7.16 µM

Q: What about the GI50 [5] of the same compound?
A: 1.05 µM

Q: And the CC50 [5, 15]?
A: 17.2 µM

Q: What about the IC (TGI) [5, 16] of the same compound?
A: 4.31 µM

Q: And the GI50 [6]?
A: 1.53 µM

Q: What about the CC50 [6, 15] of the same compound?
A: 17.2 µM

Q: And the IC (TGI) [6, 16]?
A: 5.7 µM

Q: And the GI50 [7]?
A: 3.76 µM

Q: And the CC50 [7, 15]?
A: 17.2 µM

Q: And the IC (TGI) [7, 16]?
A: 14.2 µM

Q: And the GI50 [8]?
A: 0.616 µM

Q: What about the CC50 [8, 15] of the same compound?
A: 17.2 µM

Q: And the IC (TGI) [8, 16]?
A: 2.71 µM

Q: And the GI50 [9]?
A: 1.71 µM

Q: What about the CC50 [9, 15] of the same compound?
A: 11.1 µM

Q: And the IC (TGI) [9, 16]?
A: 4.34 µM

Q: And the GI50 [10]?
A: 3.4 µM

Q: And the CC50 [10, 15]?
A: 17.2 µM

Q: What about the IC (TGI) [10, 16] of the same compound?
A: 8.94 µM

Q: What about the GI50 [11] of the same compound?
A: 0.884 µM

Q: And the CC50 [11, 15]?
A: 13.3 µM

Q: What about the IC (TGI) [11, 16] of the same compound?
A: 4.02 µM

Q: And the GI50 [12]?
A: 1.52 µM

Q: What about the CC50 [12, 15] of the same compound?
A: 17.2 µM

Q: And the IC (TGI) [12, 16]?
A: 17.2 µM

Q: And the GI50 [13]?
A: 0.711 µM

Q: What about the CC50 [13, 15] of the same compound?
A: 17.2 µM

Q: What about the IC (TGI) [13, 16] of the same compound?
A: 2.59 µM

Q: What about the GI50 [14] of the same compound?
A: 12.5 µM

Q: What about the CC50 [14, 15] of the same compound?
A: 17.2 µM

Q: And the IC (TGI) [14, 16]?
A: 17.2 µM

Q: How did the GI50 [1] turn out when `COc1cc(-c2c3c4cc(OC)c(OC(=O)C[C@H](N)C(C)C)cc4oc(=O)c3n3ccc4cc(OC(=O)C[C@H](N)C(C)C)c(OC)cc4c23)ccc1OC(=O)C[C@H](N)C(C)C` [Compound 206] was run?
A: 0.0297 µM

Q: What about the CC50 [1, 17] of the same compound?
A: 0.589 µM

Q: And the IC (TGI) [1, 18]?
A: 0.19 µM

Q: What about the GI50 [2] of the same compound?
A: 0.0834 µM

Q: And the CC50 [2, 17]?
A: 2.82 µM

Q: And the IC (TGI) [2, 18]?
A: 0.523 µM

Q: What about the GI50 [3] of the same compound?
A: 0.0558 µM

Q: What about the CC50 [3, 17] of the same compound?
A: 2.77 µM

Q: And the IC (TGI) [3, 18]?
A: 0.41 µM

Q: What about the GI50 [4] of the same compound?
A: 0.0218 µM

Q: What about the CC50 [4, 17] of the same compound?
A: 0.0725 µM

Q: And the IC (TGI) [4, 18]?
A: 0.0399 µM

Q: And the GI50 [5]?
A: 0.0701 µM

Q: And the CC50 [5, 17]?
A: 2.89 µM

Q: What about the IC (TGI) [5, 18] of the same compound?
A: 0.451 µM

Q: And the GI50 [6]?
A: 0.044 µM

Q: What about the CC50 [6, 17] of the same compound?
A: 1.04 µM

Q: And the IC (TGI) [6, 18]?
A: 0.169 µM

Q: And the GI50 [7]?
A: 0.0311 µM

Q: What about the CC50 [7, 17] of the same compound?
A: 4.23 µM

Q: What about the IC (TGI) [7, 18] of the same compound?
A: 1.11 µM

Q: And the GI50 [8]?
A: 0.0505 µM

Q: What about the CC50 [8, 17] of the same compound?
A: 1.93 µM

Q: And the IC (TGI) [8, 18]?
A: 0.33 µM

Q: And the GI50 [9]?
A: 0.0752 µM

Q: What about the CC50 [9, 17] of the same compound?
A: 3.33 µM

Q: What about the IC (TGI) [9, 18] of the same compound?
A: 0.475 µM

Q: And the GI50 [10]?
A: 0.167 µM

Q: What about the CC50 [10, 17] of the same compound?
A: 0.66 µM

Q: What about the IC (TGI) [10, 18] of the same compound?
A: 0.331 µM

Q: And the GI50 [11]?
A: 0.0527 µM

Q: What about the CC50 [11, 17] of the same compound?
A: 0.589 µM

Q: And the IC (TGI) [11, 18]?
A: 0.194 µM

Q: And the GI50 [12]?
A: 1.32 µM

Q: What about the CC50 [12, 17] of the same compound?
A: 10.5 µM

Q: And the IC (TGI) [12, 18]?
A: 10.5 µM

Q: What about the GI50 [13] of the same compound?
A: 0.137 µM

Q: And the CC50 [13, 17]?
A: 6.25 µM

Q: What about the IC (TGI) [13, 18] of the same compound?
A: 1.27 µM

Q: What about the GI50 [14] of the same compound?
A: 0.294 µM

Q: What about the CC50 [14, 17] of the same compound?
A: 6.37 µM

Q: And the IC (TGI) [14, 18]?
A: 1.01 µM
